Results published in publication PMC3629230, “Permeability Enhancers Dramatically Increase Zanamivir Absolute Bioavailability in Rats: Implications for an Orally Bioavailable Influenza Treatment” (PLoS ONE, 2013).
Where two headings read alike, the source gives them in different places.

Experiments:
[1] = cited from earlier work
neuraminidase = details: more potent; cited from earlier work
Caco-2 cell monolayers = experiment: Unidirectional (A-to-B) permeability of zanamivir across Caco-2 cell monolayers with and without excipients; type: in vitro ADME; details: initial screening, glycerol and Capmul MCM L8, results not shown
Experimental: Caco-2 cells were obtained from American Type Culture Collection (Rockville, MD). Stock cultures were maintained in flasks with DMEM medium supplemented with 10% FBS, 1% non-essential amino acids, 1 mmol/L sodium pyruvate, 100 IU/mL penicillin, and 100 µg/mL streptomycin in a humidified incubator (37°C, 5% CO2). Cells were harvested by trypsinization and seeded at 60,000 cells/cm^2 onto Costar Transwell® 12-well dual-chamber plates with collagen-coated, microporous polycarbonate membranes (1.13 cm^2 insert area, 0.4 µm pore size; Corning Life Sciences, Acton, MA) for permeability studies. The culture medium was changed three times per week.
Caco-2 cell monolayers that had grown for at least 20 days were subjected to batch quality control testing in which permeation rates were measured for atenolol, digoxin, estrone-3-sulfate, lucifer yellow (LY), and propranolol. In addition, the transepithelial electrical resistance (TEER) across each experimental monolayer was tested prior to an experiment.
Unidirectional (A-to-B) permeability of zanamivir was determined at 15 µg/mL in the absence and presence of varying concentrations of excipients in Caco-2 cell monolayers. The assay buffer was Hanks' balanced salt solution (HBSS) supplemented with 10 mM 4-(2-hydroxyethyl)-1-piperazineethanesulfonic acid (HEPES) and 15 mM D-glucose (HBSSg), pH 7.4. The dosing solutions on the apical side (0.5 mL) contained either zanamivir and excipients at each concentration being tested or zanamivir only (n = 4), while the receiver buffer in the bottom well (1.5 mL) was always excipient-free. The Caco-2 cell monolayers were incubated for 120 min in a humidified incubator (37°C, 5% CO2) after dosing in the apical chambers. Aliquots (200 µL each) of receiver buffer were sampled at 60 min, 90 min, and 120 min after dosing, with replacement by the same volume of blank buffer (at 60 min and 90 min). Donors were sampled at 0 and 120 min.
Experimental samples were identically treated.

| SMILES | Oral bioavailability ([1]; in vivo, po) | Absolute bioavailability ([1]; in vivo) | Oral bioavailability [1] | further results |
| --- | --- | --- | --- | --- |
| CCC(CC)O[C@@H]1C=C(C(=O)O)C[C@H](N)[C@H]1NC(C)=O [oseltamivir carboxylate] | 2% | under 5% |  |  |
| CCC(CC)OC1C=C(C(=O)O)CC(NC(=N)N)C1NC(C)=O (stereo not shown) [GS4116 carboxylate] | under 5% |  |  | Inhibitor potency relative to oseltamivir carboxylate (neuraminidase): 10 fold |
| CCC(CC)[C@H](NC(C)=O)[C@@H]1[C@H](O)[C@@H](C(=O)O)C[C@H]1N=C(N)N [peramivir] |  |  | under 2% | Drug transport across Caco-2 cell monolayers with enhancers (Caco-2 cell monolayers): substantially increased drug transport |
| CCOC(=O)C1=C[C@@H](OC(CC)CC)[C@H](NC(C)=O)[C@@H](N)C1 [oseltamivir] | at least 35% | ≥ 35% |  |  |
| CCOC(=O)C1=CC(OC(CC)CC)C(NC(C)=O)C(NC(=N)N)C1 (stereo not shown) [GL4116 ethyl ester] | under 5% |  |  |  |
| CO[C@@H]([C@@H]1OC(C(=O)O)=C[C@H](NC(=N)N)[C@H]1NC(C)=O)[C@H](O)CO [laninamivir] |  |  | under 2% |  |
